The assay concerns B6C3F1 mice, colon carcinoma 38 s.c., T/C. Briefly: NCI In Vivo Anticancer Drug Screen. Data for tumor model Colon Carcinoma 38 (subcutaneous) in B6C3F1 mice. Conditions: higher = larger tumour. The method, then: The antitumor activity of compounds was measured in mice bearing transplantable tumors. Survival or tumor size were measured and the results are expressed as the measurement made in the treated group (T) divided by the measurement made in the vehicle treated control group (C). The tumor model used in this assay is Colon Carcinoma 38 (subcutaneous) in B6C3F1 mice

[1] abbreviates: endpoint: median tumor weight (est.), dose: 25.0 mg/kg/injection, schedule: Q07DX002 (ip), vehicle: saline with Tween-80.
[2] abbreviates: endpoint: median tumor weight (est.), dose: 50.0 mg/kg/injection, schedule: Q07DX002 (ip), vehicle: saline with Tween-80.
The mark [3] stands for this setting: endpoint: median tumor weight (est.), dose: 100.0 mg/kg/injection, schedule: Q07DX002 (ip), vehicle: saline with Tween-80.
Setting [4] is: endpoint: median tumor weight (est.), dose: 200.0 mg/kg/injection, schedule: Q07DX002 (ip), vehicle: saline with Tween-80.
Where [5] appears, read: endpoint: median tumor weight (est.), dose: 50.0 mg/kg/injection, schedule: Q07DX002 (ip), vehicle: saline.
The mark [6] stands for this setting: endpoint: median tumor weight (est.), dose: 100.0 mg/kg/injection, schedule: Q07DX002 (ip), vehicle: saline.
Where [7] appears, read: endpoint: median tumor weight (est.), dose: 200.0 mg/kg/injection, schedule: Q07DX002 (ip), vehicle: saline.
[8] abbreviates: endpoint: median tumor weight (est.), dose: 400.0 mg/kg/injection, schedule: Q07DX002 (ip), vehicle: saline.

Values joined by “and” are separate entries in the source; they are usually repeats but may differ in a detail not shown here. Equal values may be shown once. Records with an inconclusive call do not appear.

Our source for the T/C values is PubChem BioAssay AID214 (DTP/NCI, 2004).

`Nc1ccc2c(c1)CN1C(=O)c3ccccc3C1=N2`: the T/C (endpoint: median tumor weight (est.), dose: 6.25 mg/kg/injection, schedule: Q01DX008 (ip), vehicle: other) is 90 % of control; the T/C (endpoint: median tumor weight (est.), dose: 12.5 mg/kg/injection, schedule: Q01DX008 (ip), vehicle: other) is 69 % of control; the T/C (endpoint: median tumor weight (est.), dose: 25.0 mg/kg/injection, schedule: Q01DX008 (ip), vehicle: other) was 58 % of control; the T/C (endpoint: median tumor weight (est.), dose: 25.0 mg/kg/injection, schedule: Q07DX002 (ip), vehicle: other) was 82 % of control and 92 % of control; the T/C under setting [1] was 60 % of control; the T/C (endpoint: median tumor weight (est.), dose: 50.0 mg/kg/injection, schedule: Q01DX008 (ip), vehicle: other) was 21 % of control. Besides, the T/C was 56 % of control under setting [2]; 49 % of control (endpoint: median tumor weight (est.), dose: 100.0 mg/kg/injection, schedule: Q07DX002 (ip), vehicle: other); 60 % of control under setting [3]; 1 % of control (endpoint: median tumor weight (est.), dose: 200.0 mg/kg/injection, schedule: Q07DX002 (ip), vehicle: other); 35 % of control under setting [4]; 74 % of control (endpoint: median tumor weight (est.), dose: 355.9 mg/kg/injection, schedule: Q07DX002 (oral), vehicle: DMSO). The T/C (endpoint: median tumor weight (est.), dose: 533.6 mg/kg/injection, schedule: Q07DX002 (oral), vehicle: DMSO) is 94 % of control; the T/C (endpoint: median tumor weight (est.), dose: 800.0 mg/kg/injection, schedule: Q07DX002 (oral), vehicle: DMSO) was 76 % of control; the T/C (endpoint: median tumor weight (est.), dose: 1200.0 mg/kg/injection, schedule: Q07DX002 (oral), vehicle: DMSO) is 122 % of control; the T/C (endpoint: optimum tumor weight change, dose: 86.0 mg/kg/injection, schedule: Q07DX002 (ip), vehicle: saline with Tween-80) is 77 % of control; the T/C (endpoint: optimum tumor weight change, dose: 144.0 mg/kg/injection, schedule: Q07DX002 (ip), vehicle: saline with Tween-80) was 84 % of control; the T/C (endpoint: optimum tumor weight change, dose: 240.0 mg/kg/injection, schedule: Q07DX002 (ip), vehicle: saline with Tween-80) is 84 % of control. The T/C (endpoint: optimum tumor weight change, dose: 400.0 mg/kg/injection, schedule: Q07DX002 (ip), vehicle: saline with Tween-80) was 71 % of control.

On to `NC(=O)c1c[se]c(C2OC(CO)C(O)C2O)n1` (stereo not drawn), for which the T/C under setting [5] is 90 % of control; the T/C under setting [6] was 87 % of control; the T/C under setting [7] was 84 % of control; the T/C under setting [8] is 92 % of control; the T/C (endpoint: median tumor weight (est.), dose: 800.0 mg/kg/injection, schedule: Q07DX002 (ip), vehicle: saline) was 56 % of control.

As to `CO[C@@]12[C@H](COC(N)=O)C3=C(C(=O)C(C)=C(N)C3=O)N1C[C@@H]1N[C@@H]12`, the T/C is 77 % of control (endpoint: median tumor weight (est.), dose: 0.5 mg/kg/injection, schedule: Q07DX002 (ip), vehicle: saline); 18 % of control and 19 % of control (endpoint: median tumor weight (est.), dose: 4.0 mg/kg/injection, schedule: Q07DX002 (ip), vehicle: saline).

For `Cc1c(-c2ccc(-c3ccccc3F)cc2)nc2ccc(F)cc2c1C(=O)O`, the T/C is, setting by setting: (endpoint: median tumor weight (est.), dose: 3.6 mg/kg/injection, schedule: Q01DX008 (ip), vehicle: water) 45 % of control; (endpoint: median tumor weight (est.), dose: 6.0 mg/kg/injection, schedule: Q01DX008 (ip), vehicle: water) 53 % of control; (endpoint: median tumor weight (est.), dose: 10.0 mg/kg/injection, schedule: Q01DX008 (ip), vehicle: water) 43 % of control; (endpoint: median tumor weight (est.), dose: 16.6 mg/kg/injection, schedule: Q01DX008 (ip), vehicle: water) 26 % of control; (endpoint: median tumor weight (est.), dose: 27.7 mg/kg/injection, schedule: Q01DX008 (ip), vehicle: water) 23 % of control.

Regarding `Cc1cc(NS(=O)(=O)c2ccc(N=Nc3cc(N=Nc4ccc(S(=O)(=O)Nc5cc(C)nc(C)n5)cc4)c4c(NC(=O)C(Cl)Cl)cccc4c3OC(=O)C(Cl)Cl)cc2)nc(C)n1` (tested in a mixture with another compound), the T/C is 111 % of control (endpoint: median tumor weight (est.), dose: 25.0 mg/kg/injection, schedule: Q07DX002 (ip), vehicle: suspension in saline) and 114 % of control (endpoint: median tumor weight (est.), dose: 400.0 mg/kg/injection, schedule: Q07DX002 (ip), vehicle: suspension in saline).

As to `Cc1c2ccccc2c(C)c2c1cc(C(=O)O)c1ccccc12`, the T/C (endpoint: median tumor weight (est.), dose: 12.5 mg/kg/injection, schedule: Q07DX002 (ip), vehicle: sodium bicarbonate) was 66 % of control; the T/C (endpoint: median tumor weight (est.), dose: 25.0 mg/kg/injection, schedule: Q07DX002 (ip), vehicle: sodium bicarbonate) is 98 % of control; the T/C (endpoint: median tumor weight (est.), dose: 50.0 mg/kg/injection, schedule: Q07DX002 (ip), vehicle: sodium bicarbonate) was 74 % of control; the T/C (endpoint: median tumor weight (est.), dose: 62.5 mg/kg/injection, schedule: Q07DX002 (ip), vehicle: sodium bicarbonate) was 112 % of control; the T/C (endpoint: median tumor weight (est.), dose: 100.0 mg/kg/injection, schedule: Q07DX002 (ip), vehicle: sodium bicarbonate) was 107 % of control; the T/C (endpoint: median tumor weight (est.), dose: 125.0 mg/kg/injection, schedule: Q07DX002 (ip), vehicle: sodium bicarbonate) was 106 % of control. In addition, the T/C was 108 % of control (endpoint: median tumor weight (est.), dose: 200.0 mg/kg/injection, schedule: Q07DX002 (ip), vehicle: sodium bicarbonate); 76 % of control (endpoint: median tumor weight (est.), dose: 250.0 mg/kg/injection, schedule: Q07DX002 (ip), vehicle: sodium bicarbonate); 26 % of control (endpoint: median tumor weight (est.), dose: 500.0 mg/kg/injection, schedule: Q07DX002 (ip), vehicle: sodium bicarbonate); 23 % of control (endpoint: median tumor weight (est.), dose: 1000.0 mg/kg/injection, schedule: Q07DX002 (ip), vehicle: sodium bicarbonate).

As for `O=C(O)Cc1cccc2c(=O)c(-c3ccccc3)coc12`, the T/C is 177 % of control under setting [6], 76 % of control under setting [7] and 121 % of control under setting [8].

Consider `COc1ccc2c(ccc3oc([N+](=O)[O-])cc32)c1`, for which the T/C under setting [2] was 101 % of control; the T/C under setting [3] was 116 % of control; the T/C under setting [4] was 90 % of control; the T/C (endpoint: median tumor weight (est.), dose: 400.0 mg/kg/injection, schedule: Q07DX002 (ip), vehicle: saline with Tween-80) was 92 % of control.

As for `CCCCCCCCCCCCCCCCCCOCC(COP(=O)([O-])OCC[N+](C)(C)C)OC` (stereo not drawn), the T/C runs as follows: (endpoint: median tumor weight (est.), dose: 12.5 mg/kg/injection, schedule: Q07DX002 (ip), vehicle: saline) 122 % of control; (endpoint: median tumor weight (est.), dose: 25.0 mg/kg/injection, schedule: Q07DX002 (ip), vehicle: saline) 119 % of control; under setting [5], 89 % of control; under setting [6], 73 % of control.

Take `COc1cc(C)c(C2NC(=O)c3ccccc3N2)cc1C` (stereo not drawn): the T/C reads like this: (endpoint: median tumor weight (est.), dose: 450.0 mg/kg/injection, schedule: Q07DX002 (ip), vehicle: Klucel (hydroxypropylcellulose) (HPC)) 70 % of control; (endpoint: median tumor weight (est.), dose: 900.0 mg/kg/injection, schedule: Q07DX002 (ip), vehicle: Klucel (hydroxypropylcellulose) (HPC)) 53 % of control; (endpoint: median tumor weight (est.), dose: 1800.0 mg/kg/injection, schedule: Q07DX002 (ip), vehicle: Klucel (hydroxypropylcellulose) (HPC)) 115 % of control; (endpoint: median tumor weight (est.), dose: 3600.0 mg/kg/injection, schedule: Q07DX002 (ip), vehicle: Klucel (hydroxypropylcellulose) (HPC)) 55 % of control.

Regarding `O=C(O)C1CC(O)CN1` (stereo not drawn), the T/C by setting is: under setting [5], 93 % of control; under setting [6], 87 % of control; under setting [8], 79 % of control.

For `OCC(O)C(O)C(O)C(O)CO` (stereo not drawn), the T/C runs as follows: (endpoint: median tumor weight (est.), dose: 75.0 mg/kg/injection, schedule: Q07DX002 (ip), vehicle: saline) 90 % of control; (endpoint: median tumor weight (est.), dose: 150.0 mg/kg/injection, schedule: Q07DX002 (ip), vehicle: saline) 66 % of control; (endpoint: median tumor weight (est.), dose: 300.0 mg/kg/injection, schedule: Q07DX002 (ip), vehicle: saline) 111 % of control; (endpoint: median tumor weight (est.), dose: 600.0 mg/kg/injection, schedule: Q07DX002 (ip), vehicle: saline) 92 % of control; (endpoint: median tumor weight (est.), dose: 1200.0 mg/kg/injection, schedule: Q07DX002 (ip), vehicle: saline) 86 % of control.

Regarding `Cc1c(N)nc([C@H](CC(N)=O)NC[C@H](N)C(N)=O)nc1C(=O)N[C@H](C(=O)N[C@H](C)[C@@H](O)[C@H](C)C(=O)N[C@H](C(=O)NCCc1nc(-c2nc(C(=O)NCCC[S+](C)C)cs2)cs1)[C@@H](C)O)C(OC1OC(CO)C(O)C(O)C1OC1OC(CO)C(O)C(OC(N)=O)C1O)c1cnc[nH]1` (stereo partly drawn), the T/C is, setting by setting: (endpoint: median tumor weight (est.), dose: 16.0 mg/kg/injection, schedule: Q07DX002 (ip), vehicle: saline) 26 % of control; (endpoint: median tumor weight (est.), dose: 32.0 mg/kg/injection, schedule: Q07DX002 (ip), vehicle: saline) 14 % of control; (endpoint: median tumor weight (est.), dose: 64.0 mg/kg/injection, schedule: Q07DX002 (ip), vehicle: saline) 35 % of control; (endpoint: median tumor weight (est.), dose: 128.0 mg/kg/injection, schedule: Q07DX002 (ip), vehicle: saline) 9 % of control.

With `CCC(NC(N)=O)C(CC)NC(N)=O` (stereo not drawn), the T/C is 83 % of control under setting [1], 88 % of control under setting [2] and 81 % of control under setting [3].
